Source: PMC6123649, “Structural basis for specific inhibition of the highly sensitive ShHTL7 receptor” (EMBO Reports, 2018)
Values joined by “and” are separate entries in the source; they are usually repeats but may differ in a detail not shown here. Equal entries are not always repeated. “Also recorded” adds a separate entry of the source.

Experiments:
[1] = system: Orobanche minor; parameters: method as in PMID 23915294; conditions: concentrations above 0.001%; cited from earlier work
[2] = system: Striga hermonthica seeds; experiment: Striga hermonthica germination bioassay; type: in vivo
Experimental: Striga hermonthica seeds were collected from Sorghum bicolor field in Sudan. For germination bioassays, Striga seeds were first sterilized and pre‐conditioned as described before 31. […] Triton X‐100/GR24 mixtures were applied (50 μl per disk) in four replicates. Corresponding volumes of GR24 and sterile MiliQ water were included as positive and negative control, respectively. The petri dishes were sealed with parafilm, enfolded with aluminum foil, and incubated for 48 h at 30°C. The germinated (seeds with radicle emerging through the seed coat) and non‐germinated Striga seeds were recorded under a binocular, and germination percentage was calculated.

[3] = system: GR24‐dependent interaction of ShHTL7 with ShMAX2; experiment: GST pulldown of ShMAX2; type: biochemical, Striga hermonthica; conditions: pre‐incubation of ShHTL7 with Triton; 20 μM GR24
Experimental: (§1) Purified GST‐ShHTL7 wt, ShHTL7 L143Y, and ShHTL7‐H246N mutants were bound to the Glutathione Sepharose 4B Beads, where Triton is used in the lysis step and in certain samples Tween‐20 was used instead of Triton. Bound proteins were incubated with 20 μM GR24 and His6‐ShMAX2 lysate for 2 h and then washed with lysis buffer for three times and then ShHTL7 wt and mutants were eluted with the addition of 20 mM reduced glutathione. Thus, eluted protein was subjected to Western blot using antibody specific to 6XHis (anti‐His).

[4] = system: ShHTL7 L143Y binding to ShMAX2; experiment: GST pulldown of ShMAX2; type: biochemical, Striga hermonthica
Experimental: as §1

[5] = target: T1, ShHTL7 (Striga hermonthica, UniProt A0A0M3PNA2); experiment: Differential static light scattering (DSLS), aggregation temperature; type: binding
T1 sequence (A0A0M3PNA2 1-271): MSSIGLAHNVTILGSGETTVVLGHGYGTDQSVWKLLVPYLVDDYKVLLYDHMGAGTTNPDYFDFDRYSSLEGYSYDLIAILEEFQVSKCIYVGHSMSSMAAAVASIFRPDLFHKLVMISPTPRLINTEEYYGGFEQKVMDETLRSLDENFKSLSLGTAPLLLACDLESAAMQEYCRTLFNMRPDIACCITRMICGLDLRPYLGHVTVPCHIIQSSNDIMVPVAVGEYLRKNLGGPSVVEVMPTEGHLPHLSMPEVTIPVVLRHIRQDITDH
Experimental: (§2) The specific aggregation temperature, T agg, at which ShHTL7, ShHTL7L143Y, AtD14, and OsD14 aggregated in the presence or absence of Triton X‐100, GR24, and PAA was measured using DSLS on the Stargazer system (Harbinger Biotechnology and Engineering Corporation, Markham, Canada). Protein samples at a concentration of 10 μM were overlaid with mineral oil in a clear bottom 384‐well black plate (Corning) and heated from 20 to 95°C at 1°C/min; light scattering was detected by a CCD camera every 0.5°C in the presence or absence of varying concentrations of Triton X‐100, GR24, and PAA yielding the difference in aggregation temperature at a particular concentration from apoproteins (ΔT agg). Data were normalized, and ΔT agg plotted against the Triton X‐100, GR24, and PAA concentration. Resulting data were plotted to determine the change in T agg of all proteins when bound to Triton X‐100, GR24, and PAA using GraphPad (Prism 6).

[6] = target: T2, OsD14 (Oryza sativa subsp. japonica, UniProt Q10QA5); experiment: DSLS, aggregation temperature; type: binding; conditions: up to 100 μM of Triton
T2 construct: made in house; host or cells: E. coli BL21 (DE3)
T2 sequence (Q10QA5 1-318): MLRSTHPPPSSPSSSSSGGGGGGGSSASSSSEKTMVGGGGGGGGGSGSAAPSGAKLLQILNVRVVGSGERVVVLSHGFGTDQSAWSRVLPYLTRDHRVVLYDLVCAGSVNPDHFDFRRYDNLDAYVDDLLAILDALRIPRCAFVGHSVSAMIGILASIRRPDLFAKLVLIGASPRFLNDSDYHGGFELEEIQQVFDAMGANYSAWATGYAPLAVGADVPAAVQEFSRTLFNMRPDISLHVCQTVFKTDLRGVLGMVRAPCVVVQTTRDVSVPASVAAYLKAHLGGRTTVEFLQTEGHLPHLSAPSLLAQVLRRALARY
Experimental: as §2

[7] = target: T3, AtD14 (Arabidopsis thaliana, UniProt Q9SQR3); experiment: DSLS, aggregation temperature; type: binding; conditions: up to 100 μM of Triton
T3 construct: made in house; host or cells: E. coli BL21 (DE3)
T3 sequence (Q9SQR3 1-267): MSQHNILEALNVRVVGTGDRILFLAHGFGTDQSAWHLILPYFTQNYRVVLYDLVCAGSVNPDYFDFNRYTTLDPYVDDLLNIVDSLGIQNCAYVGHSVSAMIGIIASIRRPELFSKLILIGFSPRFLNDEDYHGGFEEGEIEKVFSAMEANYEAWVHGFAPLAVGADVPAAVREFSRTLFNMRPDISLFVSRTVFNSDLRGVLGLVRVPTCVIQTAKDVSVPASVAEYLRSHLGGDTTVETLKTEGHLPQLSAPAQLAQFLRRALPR
Experimental: as §2

[8] = target: T2, OsD14; experiment: Intrinsic Triton fluorescence binding assay; conditions: up to 5 μM of OsD14
Experimental: Triton X‐100 has an excitation and emission wavelength of 275 and 302 nm, respectively. ShHTL7, ShHTL7‐L143Y, AtD14, and OsD14 were incubated in 50 mM Tris–HCl pH 7.5, 150 mM NaCl, with or without 0.005% Tween‐20, at concentrations ranging from 10 μM to 1 nM (obtained using serial dilutions) with 154 nM of Triton X‐100 for 1–2 h, and fluorescence values were then measured by SpectraMax i3 (Molecular Devices) at excitation and detection wavelengths of 275 and 302 nm, respectively. […] Data were normalized to the background fluorescence from the protein to obtain the change in Triton X‐100 fluorescence intensity. To determine the K d, the changes in Triton X‐100 fluorescence intensity were plotted against the concentration of the protein using the single binding site model implemented in GraphPad (Prism 6).

In the case of Triton X-100, the “effect on seed germination” value [1] is listed as “hindered seed germination”, the “reduction in GR24‐induced germination” value ([2]; 15 μM Triton, GR24 0.125–1 nM, 2 days) is listed as ~ 50% and 50% and the “reduction of Striga germination by Triton” value ([2]; in vivo) is listed as “up to 50%”. The “effect on GR24‐dependent interaction of ShHTL7 with ShMAX2” value [3] was “inhibited”, the “inhibition of ShMAX2 binding of ShHTL7 L143Y” value [4] was “did not inhibit” and the “effect on ShHTL7 aggregation temperature (T agg)” value ([5]; 10 μM protein, varying compound concentrations) was “increases; also recorded: stabilized”. For the same substance, the “effect of Triton pre‐incubation on GR24-induced T agg changes in ShHTL7” value ([5]; pre‐incubation with Triton, then GR24) was “efficiently blocked”, the “effect on T agg” value [6] was “failed to affect” and the “effect on T agg” value [7] was “failed to affect”. For the same substance, the “change of Triton fluorescence in presence of protein” value [8] was “did not change”.
